SMILES	logP
CC(=O)OCCNc1ccc(-c2ccncc2)c(C)n1	2.59
CC(=O)OCCCNc1ccc(-c2ccncc2)c(C)n1	2.91
O=C(OCCNc1ccc(-c2ccncc2)cn1)c1ccccc1	3.84
CC(=O)N1CCN(c2ccc(-c3ccccc3)c(C)n2)CC1	4.08
CC(=O)OCCOc1ccc(-c2ccccc2)c(C)n1	4
CC(=O)N1CCN(c2ccc(-c3ccncc3)cn2)CC1	2.04
CC(=O)OCC(COc1ncc(-c2ccncc2)cc1C#N)OC(C)=O (stereo not given)	2.51
CC(=O)OCCN(CCOC(C)=O)c1ncc(-c2ccncc2)cc1C#N	2.44
CC(=O)COC(C)CNc1ccc(-c2ccccc2)c(C)n1 (stereo not given)	3.74

Continued, values first:

logP	SMILES
3.07	CCC(=O)OCCCOc1ccc(-c2ccncc2)cn1
3.21	CCC(=O)OCCOc1ccc(-c2ccncc2)c(C)n1
1.92	CC(=O)OCCOc1ccc(-c2ccncc2)cn1
2.48	CC(=O)OCCCOc1ccc(-c2ccncc2)cn1
2.58	O=C(OCCNc1ccc(-c2ccncc2)cn1)c1cccnc1
4.06	O=C(OCCCNc1ccc(-c2ccncc2)cn1)c1ccccc1
2.39	CCC(=O)N1CCN(c2ccc(-c3ccncc3)cn2)CC1
2.42	CC(=O)OCCCNc1ccc(-c2ccncc2)cn1
2.87	CCC(=O)OCCCNc1ccc(-c2ccncc2)cn1
2	CC(=O)OCCNc1ccc(-c2ccncc2)cn1
2.47	CCC(=O)OCCNc1ccc(-c2ccncc2)cn1
